Among the data in patent US20230357179A1, “RAF KINASE INHIBITORS AND METHODS OF USE THEREOF” (Deciphera Pharmaceuticals, LLC, priority 2021, published 2023) are IC50 values, retold here.

The test system of test [1] is A375 cells. In words: A375 cell proliferation assay (1), resazurin, 96-well. It counts as cell-based. The note with it: Homo sapiens, A-375, inhibition of cell proliferation. Put shortly:
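Viability was read by resazurin fluorescence at 540 nm excitation and 600 nm emission, using a 440 μM solution added for 5–6 h at the end of culture. IC50 came from the curve fit.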

The test system of test [2] is WM3928 cells. In words: WM3928 cell proliferation assay (1), resazurin, 96-well. It counts as cell-based. The note with it: inhibition of cell proliferation. A digest of the protocol: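 IC50 was derived from resazurin fluorescence (ex 540, em 600 nm) after a 6–7 h dye incubation. Before that, cells had 67–72 h of compound exposure at 37 °C, 5% CO2.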
The target of test [3] is T1, A-Raf kinase (Homo sapiens, UniProt P10398, Y301D/Y302D).
T1 construct: purchased Sigma
In words: Biochemical assay for A-Raf.2 (coupled pyruvate kinase/lactate dehydrogenase). The note with it: read-out: ARAF.2 IC50. The protocol:
Biochemical Assay for A-Raf.2
(§1) Activity of A-Raf kinase (SEQ. ID No: 1) was determined spectroscopically using a coupled pyruvate kinase/lactate dehydrogenase assay that continuously monitors the ATP hydrolysis-dependent oxidation of NADH (e.g., Schindler et al., Science, 2000, 289, 1938-1942). Assays were conducted in 384-well plates (25 μL final volume) using 20 nM A-Raf (Eurofins), 1.5 units pyruvate kinase, 2.1 units lactate dehydrogenase, 1 mM phosphoenol pyruvate, 0.7 mM NADH, 100 nM MEK (SignalChem), and 1 mM ATP in assay buffer (100 mM Tris, pH 7.5, 15 mM MgCl2, 0.5 mM DTT, 0.1% octyl-glucoside, 0.002% (w/v) BSA, and 0.002% Triton X-100). Inhibition of A-Raf was measured by adding serial diluted test compound (final assay concentration of 1% DMSO). A decrease in absorption at 340 nm was monitored hourly for 4 h at 30° C. on a multi-mode microplate reader (BioTek). The reaction rate was calculated using the 3 to 4 h time frame. The reaction rate at each concentration of compound was converted to percent inhibition using controls (i.e., reaction with no test compound and reaction with a known inhibitor) and IC50 values were calculated by fitting a four-parameter sigmoidal curve to the data using Prism (GraphPad software).

Test [4] has as its target T2, B-Raf (V600E) kinase (Homo sapiens, UniProt P15056, V600E).
T2 construct: B-Raf (V600E) residues 416-766 with a; GST (N); purchased SignalChem
In words: Biochemical assay for B-Raf (V600E).2 (coupled pyruvate kinase/lactate dehydrogenase). The note with it: read-out: BRAF V600E.2 IC50. On the procedure:
Biochemical Assay for B-Raf (V600E).2
as §1, with “of B-Raf (V600E)” for “of A-Raf kinase”, “ID NO: 4) kinase” for “ID No: 1)”, “using 0.5” for “using 20”, “nM B-Raf (deCode),” for “nM A-Raf (Eurofins),”, “of B-Raf (V600E)” for “of A-Raf”

Some results are limits rather than exact numbers.

T2 sequence (P15056 416-766 V600E): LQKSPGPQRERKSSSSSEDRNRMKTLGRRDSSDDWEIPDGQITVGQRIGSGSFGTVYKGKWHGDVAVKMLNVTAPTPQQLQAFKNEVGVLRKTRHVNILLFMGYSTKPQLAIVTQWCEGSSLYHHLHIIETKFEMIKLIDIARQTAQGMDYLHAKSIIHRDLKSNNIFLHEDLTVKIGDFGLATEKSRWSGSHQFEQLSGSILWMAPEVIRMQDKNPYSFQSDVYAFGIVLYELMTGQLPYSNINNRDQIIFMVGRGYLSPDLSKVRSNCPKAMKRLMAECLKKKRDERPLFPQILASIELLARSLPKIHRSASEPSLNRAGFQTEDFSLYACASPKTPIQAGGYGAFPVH
T1 sequence (P10398 with tags, fused parts or gaps Y301D/Y302D): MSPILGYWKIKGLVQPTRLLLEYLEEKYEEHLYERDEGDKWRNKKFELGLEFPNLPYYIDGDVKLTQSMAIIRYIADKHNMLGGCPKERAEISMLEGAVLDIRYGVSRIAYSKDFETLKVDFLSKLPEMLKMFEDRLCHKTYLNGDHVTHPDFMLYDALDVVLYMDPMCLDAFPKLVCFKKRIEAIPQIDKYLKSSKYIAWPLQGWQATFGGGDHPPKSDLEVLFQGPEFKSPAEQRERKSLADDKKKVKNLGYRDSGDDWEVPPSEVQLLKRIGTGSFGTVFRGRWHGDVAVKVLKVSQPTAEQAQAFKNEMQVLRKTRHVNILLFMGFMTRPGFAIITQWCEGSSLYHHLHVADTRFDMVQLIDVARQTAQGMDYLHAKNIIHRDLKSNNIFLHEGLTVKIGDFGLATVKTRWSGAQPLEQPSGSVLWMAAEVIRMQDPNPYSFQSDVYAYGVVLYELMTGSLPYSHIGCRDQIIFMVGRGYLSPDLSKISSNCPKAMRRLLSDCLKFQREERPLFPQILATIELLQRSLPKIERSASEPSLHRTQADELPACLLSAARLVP

Consider `Cc1cc(F)c(NC(=O)NCC[C@@H]2CCO2)cc1-c1cc(OCCO)nc(-c2ccnc3[nH]ncc23)c1` [Example 89], for which the half-maximal inhibitory concentration (IC50) in test [1] and in test [2] was 1000 to 10000 nM in each case.
Consider `Cc1cc(F)c(NC(=O)N2CCC(C)(C#N)CC2)cc1-c1cc(OCCO)nc(-c2ccnc3[nH]ncc23)c1` [Example 92], for which the IC50 in test [1] and in test [2] was 1000 to 10000 nM each time.
On to `COC(=O)Nc1cc(-c2cncc(-c3cc(NC(=O)N4CC[C@H](C(F)(F)F)C4)ccc3C)c2)ncn1` [Example 224], for which the IC50 in test [3] was 100 to 500 nM; in test [4], not above 100 nM; in test [1] it was 100 to 500 nM; in test [2], 100 to 500 nM.
Consider `COC(C)(C)CCNC(=O)Nc1cc(-c2cc(OCCO)nc(-c3ccnc4[nH]ccc34)c2)c(C)cc1F` [Example 90], for which the values for the IC50 in test [1] and in test [2] were 1000 to 10000 nM and 500 to 1000 nM, respectively.
For the compound `CNC(=O)c1cc(-c2cncc(-c3cc(NC(=O)N4CC[C@H](C(C)C)C4)ccc3C)c2)ncn1` [Example 226], the IC50 in test [3] was more than 1000 nM; in test [4], not above 100 nM.
Regarding `Cc1ccc(NC(=O)N2CC[C@H](C)C2)cc1-c1cncc(-c2cc(NC(=O)C3CC3)ncn2)c1` [Example 227], the IC50 in test [3] and in test [4] was not above 100 nM throughout.
As to `CNC(=O)c1cc(-c2cncc(-c3cc(NC(=O)N4CC[C@H](C(F)(F)F)C4)ccc3C)c2)ncn1` [Example 220], the results for the IC50 in test [3] and in test [4] were more than 1000 nM and 100 to 500 nM, respectively.
For `CNC(=O)c1cc(-c2cc(-c3cc(NC(=O)N4CC[C@H](C(C)C)C4)ccc3C)ccn2)ccn1` [Example 225], the IC50 is more than 1000 nM in test [3] and not above 100 nM in test [4].
As to `Cc1cc(F)c(NC(=O)N[C@@H]2CC[C@H](F)C2)cc1-c1cc(OCCO)nc(-c2ccnc3[nH]ncc23)c1` [Example 88], the IC50 in test [1] and in test [2] was 1000 to 10000 nM throughout.
In the case of `CNC(=O)c1cc(-c2cc(-c3cc(NC(=O)N4CC[C@H](C(F)(F)F)C4)ccc3C)ccn2)ccn1` [Example 215], the IC50 in test [3] is more than 1000 nM; in test [4], 100 to 500 nM; in test [1] it was 1000 to 10000 nM; in test [2], 500 to 1000 nM.
In the case of `CNC(=O)c1cc(-c2cncc(-c3cc(NC(=O)N4CC[C@H](C(C)C)C4)ccc3C)c2)ccn1` [Example 229], the IC50 was more than 1000 nM in test [3] and not above 100 nM in test [4].
As to `CNC(=O)c1cc(-c2cncc(-c3cc(NC(=O)N4CC[C@H](C(F)(F)F)C4)ccc3C)c2)ccn1` [Example 228], the values for the IC50 in test [3] and in test [4] were more than 1000 nM and not above 100 nM, respectively.
On to `COC(C)(C)CCNC(=O)Nc1cc(-c2cc(OCCO)nc(-c3ccnc4[nH]ncc34)c2)c(C)cc1F` [Example 91], for which the results for the IC50 in test [1] and in test [2] were 500 to 1000 nM and 100 to 500 nM, respectively.
Turning to `Cc1cc(F)c(NC(=O)NCCC2(C)CC2)cc1-c1cc(OCCO)nc(-c2ccnc3[nH]ncc23)c1` [Example 87], the IC50 in test [1] is 100 to 500 nM; in test [2] it was not above 100 nM.
Turning to `COC(=O)Nc1cc(-c2cccc(-c3cc(NC(=O)NCCC(C)(C)OC)c(F)cc3C)c2)ccn1` [Example 85], the concentration for half-maximal inhibition (IC50) in test [1] and in test [2] was 100 to 500 nM each time.
